Measurements reported in article PMC4777217, “Modelling the Tox21 10 K chemical profiles for in vivo toxicity prediction and mechanism characterization” (Nature Communications, 2016).

Columns and labels:
[1] = target: aryl hydrocarbon receptor (Homo sapiens, UniProt P35869); assay: AhR-luc qHTS assay; format: cell-based; details: positive control titration on every plate, mean, n=408
From the text: (§1) All cell-based assays were multiplexed with a cell viability assay in the same assay well. Although bla-based assays were multiplexed with a luminescence-based cell viability assay (CellTiter-Glo viability assay, Promega), luc-based assays were multiplexed with a fluorescence-based cell viability assay (Cell Titer-Fluor viability assay, Promega). […] A number of stress response pathway assays, including ATAD5-luc[33], a genotoxicity assay, p53-bla, antioxidant responsive element (ARE-bla)[34] and heat-shock factor response element (HSE-bla) assays, were screened in agonist mode.
(§2) In primary screening, all compounds were tested as three independent runs, with each of the three instances of a compound sample residing in a different location on a different compound plate across replicates. […] Analysis of compound concentration–response data was performed as previously described[5]. […] Compound reproducibility was assessed by calculating the reproducibility of the curve ranks of each compound generated from the triplicate runs[9].

ATAD5 = assay: ATAD5-luc genotoxicity assay (agonist mode); format: cell-based; details: Homo sapiens, positive control titration on every plate, mean, n=408
From the text: as §1, §2

p53 = assay: P53-bla qHTS assay (agonist mode); format: cell-based; details: Homo sapiens, positive control titration on every plate, mean, n=408
From the text: (§3) The assays were run in different modes (agonist versus antagonist) and/or formats (full length versus partial receptor) as detailed below, totaling 30 assays. […] All cell-based assays were multiplexed with a cell viability assay in the same assay well. Although bla-based assays were multiplexed with a luminescence-based cell viability assay (CellTiter-Glo viability assay, Promega), luc-based assays were multiplexed with a fluorescence-based cell viability assay (Cell Titer-Fluor viability assay, Promega). […]
(§4) In primary screening, all compounds were tested as three independent runs, with each of the three instances of a compound sample residing in a different location on a different compound plate across replicates. […] Briefly, raw plate reads for each titration point were first normalized relative to the positive control compound (agonist mode: 100%; antagonist mode: 0%) and dimethylsulphoxide (DMSO)-only wells (agonist mode: 0%; antagonist mode: -100%) as follows: % Activity=((Vcompound – VDMSO)/(Vpos – VDMSO)) × 100, where Vcompound denotes the compound well values, Vpos denotes the median value of the positive control wells and VDMSO denotes the median values of the DMSO-only wells, and then corrected by applying an in-house pattern correction algorithm using compound-free control plates (that is,, DMSO-only plates) at the beginning and end of the compound plate stack. […]

[2] = system: heat-shock factor response element; assay: HSE-bla qHTS assay (agonist mode); format: cell-based, human; details: positive control titration on every plate, mean, n=408
From the text: as §1, §2

DT40 Rad54/Ku70 cells = assay: DT40 Rad54/Ku70 mutant cell viability assay; format: cell-based, chicken; details: positive control titration on every plate, mean, n=408
DT40 WT cells = assay: DT40 WT cell viability assay; format: cell-based, chicken; details: positive control titration on every plate, mean, n=408
DT40 Rev3 cells = assay: DT40 Rev3 cell viability assay; format: cell-based, chicken; details: positive control titration on every plate, mean, n=408
[3] = target: T1, peroxisome proliferator-activated receptor delta (Homo sapiens, UniProt Q03181); assay: PPAR-delta-bla antagonist mode qHTS assay; format: cell-based; details: positive control titration on every plate, mean, n=408
T1 sequence (Q03181 211-441 limits assumed): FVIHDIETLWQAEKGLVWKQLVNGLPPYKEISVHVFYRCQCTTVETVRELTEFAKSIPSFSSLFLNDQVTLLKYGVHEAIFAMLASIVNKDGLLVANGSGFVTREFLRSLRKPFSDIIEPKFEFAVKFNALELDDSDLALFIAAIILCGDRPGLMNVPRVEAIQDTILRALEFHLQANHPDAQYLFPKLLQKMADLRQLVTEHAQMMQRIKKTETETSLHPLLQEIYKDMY
From the text: as §3, §4

[4] = target: T1, peroxisome proliferator-activated receptor delta; assay: PPAR-delta-bla agonist mode qHTS assay; format: cell-based; details: positive control titration on every plate, mean, n=408
From the text: as §3, §4

[5] = system: antioxidant responsive element; assay: ARE-bla qHTS assay (agonist mode); format: cell-based; details: Homo sapiens, positive control titration on every plate, mean, n=408
From the text: as §3, §4

[6] = target: T2, peroxisome proliferator-activated receptor gamma (Homo sapiens, UniProt P37231); assay: PPAR-gamma-bla antagonist mode qHTS assay; format: cell-based; details: positive control titration on every plate, mean, n=408
T2 sequence (P37231 238-505 limits assumed): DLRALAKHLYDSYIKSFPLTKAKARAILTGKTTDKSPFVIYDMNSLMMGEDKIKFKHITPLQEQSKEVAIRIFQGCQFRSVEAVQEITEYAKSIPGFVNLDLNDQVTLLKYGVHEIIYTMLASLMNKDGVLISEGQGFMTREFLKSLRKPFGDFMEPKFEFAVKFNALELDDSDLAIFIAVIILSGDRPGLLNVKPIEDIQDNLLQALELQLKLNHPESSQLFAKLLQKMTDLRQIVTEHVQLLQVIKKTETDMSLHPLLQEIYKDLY
From the text: as §3, §4

Mitochondria toxicity = details: read-out: Control AC50, positive control titration on every plate, mean, n=408

Chain of aryl hydrocarbon receptor (P35869 11-848): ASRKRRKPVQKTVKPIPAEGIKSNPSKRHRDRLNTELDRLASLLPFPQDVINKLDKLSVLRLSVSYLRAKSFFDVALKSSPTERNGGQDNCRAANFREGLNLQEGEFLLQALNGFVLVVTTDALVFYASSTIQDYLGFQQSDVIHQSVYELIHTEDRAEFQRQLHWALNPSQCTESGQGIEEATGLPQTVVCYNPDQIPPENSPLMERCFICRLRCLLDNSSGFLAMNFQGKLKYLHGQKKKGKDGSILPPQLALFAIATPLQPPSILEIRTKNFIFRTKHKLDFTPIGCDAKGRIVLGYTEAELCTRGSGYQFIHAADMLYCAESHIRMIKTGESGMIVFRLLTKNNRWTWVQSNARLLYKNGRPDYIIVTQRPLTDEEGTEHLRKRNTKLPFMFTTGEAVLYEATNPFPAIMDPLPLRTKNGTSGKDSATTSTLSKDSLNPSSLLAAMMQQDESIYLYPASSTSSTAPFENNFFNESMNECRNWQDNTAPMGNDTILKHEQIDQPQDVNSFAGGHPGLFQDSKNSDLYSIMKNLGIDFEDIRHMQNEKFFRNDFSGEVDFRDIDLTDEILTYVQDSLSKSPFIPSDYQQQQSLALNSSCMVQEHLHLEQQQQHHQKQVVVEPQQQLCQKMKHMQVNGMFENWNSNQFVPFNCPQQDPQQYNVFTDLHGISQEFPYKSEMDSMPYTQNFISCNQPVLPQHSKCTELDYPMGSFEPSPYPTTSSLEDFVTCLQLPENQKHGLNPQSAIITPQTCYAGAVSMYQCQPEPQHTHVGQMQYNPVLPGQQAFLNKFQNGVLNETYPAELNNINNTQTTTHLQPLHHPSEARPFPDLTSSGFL

**Q.** COc1ccc2[nH]c([S+]([O-])Cc3ncc(C)c(OC)c3C)nc2c1 (stereo not drawn) [Omeprazole] was tested. Which AC50 [1] did it give?
**A.** 49500 nM

**Q.** O=c1[nH]c(=O)n([C@@H]2O[C@H](CO)[C@@H](O)[C@H]2O)cc1F [5-Fluorouridine] was tested. Which AC50 (ATAD5) did it give?
**A.** 2120 nM

**Q.** For CO[C@@]12[C@H](COC(N)=O)C3=C(C(=O)C(C)=C(N)C3=O)N1C[C@@H]1N[C@@H]12 [Mitomycin C], which AC50 (p53) is on record?
**A.** 1530 nM

**Q.** C=CCNC1=C2C[C@@H](C)C[C@H](OC)[C@H](O)[C@@H](C)/C=C(\C)[C@H](OC(N)=O)[C@@H](OC)/C=C\C=C(/C)C(=O)NC(=CC1=O)C2=O [17-AAG] was tested. Which AC50 [2] did it give?
**A.** 45.3 nM

**Q.** Which AC50 (DT40 Rad54/Ku70 cells) does the source give for CCCCCCCC[N+](CCCCCCCC)(CCCCCCCC)CCCCCCCC [Tetra-octyl ammonium bromide] here?
**A.** 416 nM

**Q.** And the AC50 (DT40 WT cells)?
**A.** 594 nM

**Q.** And the AC50 (DT40 Rev3 cells)?
**A.** 440 nM

**Q.** With CC(C)c1ccc2c(c1)c(SC(C)(C)C)c(CC(C)(C)C(=O)O)n2Cc1ccc(Cl)cc1 [MK886] as the molecule, how does the AC50 [3] read?
**A.** 38500 nM

**Q.** For CCCc1c(OCCCOc2ccc(OCC(=O)O)cc2)ccc(C(C)=O)c1O [L-165,041], which AC50 [4] is on record?
**A.** 36.4 nM

**Q.** O=c1cc(-c2ccccc2)oc2ccc3ccccc3c12 [β-Naphthoflavone] was tested. Which AC50 [5] did it give?
**A.** 1950 nM

**Q.** O=C(Nc1ccccc1)c1cc([N+](=O)[O-])ccc1Cl [GW9662] was tested. Which AC50 [6] did it give?
**A.** 2.47 nM

**Q.** With N#CC(C#N)=NNc1ccc(OC(F)(F)F)cc1 [FCCP] as the molecule, how does the AC50 (Mitochondria toxicity) read?
**A.** 96.2 nM
